The source of these data is patent US20060058217A1, “Compositions and methods for treatment of ovarian cancer” (priority 2003, published 2006).

In one data set the test system is spleen cells. As to the kind of experiment: splenic cell yields after challenge with ID8 murine ovarian carcinoma cells. Format: in vivo, C57BL6 mice. The text has this: Normal C57BL6 mice were challenged with ID8 murine ovarian carcinoma cells (intraperitoneally) in the presence of control vehicle (diluent), antalarmin, T-cell stimulation with 2C11 antibody, or antalarmin plus T-cell stimulation. Ten days after challenge, spleen cells were harvested and T-cells were restimulated with either antibody to the T-cell receptor and co-receptor or ID8 tumor cells in the presence of antalarmin, antibody stimulation, or a combination of antalarmin plus antibodies to T-cell receptor and co-receptor. Six days later, cells were harvested and tested for splenic cell yields. […] Treatment with tumor cells plus antalarmin plus antibody stimulation in the in vivo priming phase, followed by restimulation with irradiated tumor cells in the presence of antalarmin, provided conditions also favorable for preventing spleen cell loss induced by tumor cells. Thus, antalarmin was an important factor in preserving immune cells in vivo in the initial phases of ovarian cancer disease.

In another data set the test system is Fas ligand. Particulars: resulting in decreased apoptosis of fetal cell-recognizing T-cells; cited from earlier work.
Data set [1] deals with stimulated splenic T-cells (CD3+ and CD8+). In words: FACS analysis of splenic CD3+ and CD8+ cells co-cultured with tumor ascites inhibitory cells. Format: cell-based, mouse. Particulars: antalarmin 0.5 to 1 micromolar; co-culture with tumor ascites inhibitory cells. Background: In flow cytometry, cells or beads pass a laser one at a time.
Data set [2] deals with implantation sites and live embryos. Particulars: rodents; antalarmin administration; cited from earlier work.
Data set [3] deals with splenic cytotoxic T-cells. As to the kind of experiment: redirected lysis assay of spleen cells co-cultured with tumor ascites inhibitory cells. Format: cell-based, mouse. Particulars: antalarmin 0.5 to 1 micromolar; 3 days co-culture in vitro; stimulation with anti-CD3/CD28 monoclonal antibodies. Here is the method:
To assess the IL-2 responsiveness of T-cells within murine ascites, whole populations of cells were cultured overnight for up to 3 days with IL-2 and then tested for lytic activity using the redirected lysis assay. The assay was similar to the assay described for human cells but an anti-mouse CD3 monoclonal antibody (2C11) was used instead of OKT3. While control splenic cells from non-tumor bearing mice contained cytotoxic T-cell lytic function, the ascites samples had no IL-2 responsive T-cell lytic activity.
Experiments were then performed with antalarmin, a CRH receptor antagonist, to determine if manipulation of CRH activity was involved in the regulation of lytic activity in ovarian carcinoma cells. Spleen cells from normal non-tumor bearing mice were co-cultured in vitro for 3 days with tumor ascites inhibitory cells from the mouse model system. […]
Freshly isolated reproductive tract cells were tested for lytic function by an anti-CD3 mAb (OKT3)-dependent redirected lysis assay (White et al., J. Immunology 158:3017, 1997). […] The chromium released into the supernatant fraction was measured to obtain the percent specific cytotoxicity (% specific lysis), i.e. percent of labeled target cells killed by CD3+ effector cells, using duplicate wells and a titration of 3 effector to target ratios. […]

For the compound `CCCCN(CC)c1nc(C)nc2c1c(C)c(C)n2-c1c(C)cc(C)cc1C` [antalarmin], in the data set with spleen cells (ID8 cells intraperitoneally, spleen cells harvested ten days after challenge, restimulated, yields tested six days later), the “loss of spleen cells at early stages of ovarian carcinoma disease” value was “prevented the loss of spleen cells”. The splenic cell yields result with spleen cells (antalarmin added to tumor cells for in vivo priming phase, then non-specific stimulation or no stimulation in restimulation phase) is “best yields of spleen cells”. The “fetal cell Fas ligand expression” value in the data set on Fas ligand is “decrease fetal cell Fas ligand expression”. In addition, the “loss of CD3-stimulated T-cells mediated by murine ascites inhibitory cells” value in data set [1] is on record as “prevent the loss of CD3− stimulated T-cells”. Further, in data set [2], the “number of implantation sites and live embryos” value is recorded as “decreased the number of implantation sites an live embryos”. In addition, the “cytotoxic T-cell lytic function down-regulated by tumor ascites inhibitory cells” value in data set [3] is “prevented the down-regulation”.
